{"source": "patent US6156700A", "about": "“3-(1,2-Benzisothiazol- and isoxazol-5-yl)-2,4(1H,3H)-pyrimidinedione or thione and 3-(1,2-benzisothiazol- and isoxazol-5-yl)-4(3H)-pyrimidinone or thione herbicidal agents” (American Cyanmid Company, priority 1998, dated 2000)", "test_in_all_cases": "Preemergence herbicidal evaluation", "key": {"[1]": {"system": "IPOHE", "format": "in vivo", "description": "(§1) The preemergence and postemergence herbicidal properties of certain compounds of the present invention are compared with certain compounds disclosed in U.S. Pat. Nos. 5,484,763 and 5,523,278. The evaluations are performed as described in Examples 185 and 186. Data in Tables V and VI are reported by the compound number given in Example 185 for the compounds of this invention or by comparative compound letter for the compounds disclosed in U.S. Pat. Nos. 5,484,763 and 5,523,278."}, "[2]": {"system": "ORYSAT", "format": "in vivo, Oryza sativa", "parameters": "scale not given here", "description": "as §1"}, "[3]": {"system": "TRZAWR", "format": "in vivo", "parameters": "scale not given here", "description": "as §1"}, "[4]": {"system": "ABUTH", "format": "in vivo", "parameters": "scale not given here", "description": "as §1"}, "[5]": {"system": "CASOB", "format": "in vivo", "parameters": "scale not given here", "description": "as §1"}, "[6]": {"system": "GALAP", "format": "in vivo", "parameters": "scale not given here", "description": "as §1"}, "[7]": {"system": "GLXMAW", "format": "in vivo", "parameters": "scale not given here", "description": "as §1"}, "[8]": {"system": "ECHCG", "format": "in vivo", "parameters": "scale not given here", "description": "as §1"}, "[9]": {"system": "SETVI", "format": "in vivo", "parameters": "scale not given here", "description": "as §1"}, "[10]": {"system": "AMBEL", "format": "in vivo", "parameters": "scale not given here", "description": "as §1"}, "[11]": {"system": "ZEAMX", "format": "in vivo", "parameters": "scale not given here", "description": "as §1"}, "[12]": {"system": "CHEAL", "format": "in vivo", "parameters": "scale not given here", "description": "as §1"}}}
{"compound": "CN(C)C(=O)c1nsc2ccc(-n3c(=O)cc(C(F)(F)F)n(C)c3=O)cc12", "note": "[Compound 329, 1,2-Benzisothiazole-3-carboxamide,5-[3,6-dihydro-3-methyl-2,6-dioxo-4-(trifluoromethyl)-1(2H)-pyrimidinyl]-N,N-dimethyl-]", "values": [{"measurement": "herbicidal effect rating", "setting": "[1]; 0.0156-0.0160 kg/ha", "result": 2.5}, {"measurement": "herbicidal effect rating", "setting": "[1]; 0.0313-0.0320 kg/ha", "result": 4.0}, {"measurement": "herbicidal effect rating", "setting": "[1]; 0.0620-0.0630 kg/ha", "result": 8.0}, {"measurement": "herbicidal effect rating", "setting": "[1]; 0.1250 kg/ha", "result": 9.0}, {"measurement": "herbicidal effect rating", "setting": "[1]; 0.2500 kg/ha", "result": 9.0}, {"measurement": "herbicidal effect rating", "setting": "[2]; 0.0156-0.0160 kg/ha", "result": 1.5}, {"measurement": "herbicidal effect rating", "setting": "[2]; 0.0313-0.0320 kg/ha", "result": 2.5}, {"measurement": "herbicidal effect rating", "setting": "[2]; 0.0620-0.0630 kg/ha", "result": 5.0}, {"measurement": "herbicidal effect rating", "setting": "[2]; 0.1250 kg/ha", "result": 6.5}, {"measurement": "herbicidal effect rating", "setting": "[2]; 0.2500 kg/ha", "result": 8.0}, {"measurement": "herbicidal effect rating", "setting": "[3]; 0.0156-0.0160 kg/ha", "result": 1.0}, {"measurement": "herbicidal effect rating", "setting": "[3]; 0.0313-0.0320 kg/ha", "result": 2.0}, {"measurement": "herbicidal effect rating", "setting": "[3]; 0.0620-0.0630 kg/ha", "result": 4.0}, {"measurement": "herbicidal effect rating", "setting": "[3]; 0.1250 kg/ha", "result": 6.0}, {"measurement": "herbicidal effect rating", "setting": "[3]; 0.2500 kg/ha", "result": 7.0}, {"measurement": "herbicidal effect rating", "setting": "[4]; 0.0156-0.0160 kg/ha", "result": 9.0}, {"measurement": "herbicidal effect rating", "setting": "[4]; 0.0313-0.0320 kg/ha", "result": 9.0}, {"measurement": "herbicidal effect rating", "setting": "[4]; 0.0620-0.0630 kg/ha", "result": 9.0}, {"measurement": "herbicidal effect rating", "setting": "[4]; 0.1250 kg/ha", "result": 9.0}, {"measurement": "herbicidal effect rating", "setting": "[4]; 0.2500 kg/ha", "result": 9.0}, {"measurement": "herbicidal effect rating", "setting": "[5]; 0.0156-0.0160 kg/ha", "result": 0.5}, {"measurement": "herbicidal effect rating", "setting": "[5]; 0.0313-0.0320 kg/ha", "result": 2.0}, {"measurement": "herbicidal effect rating", "setting": "[5]; 0.0620-0.0630 kg/ha", "result": 7.0}, {"measurement": "herbicidal effect rating", "setting": "[5]; 0.1250 kg/ha", "result": 9.0}, {"measurement": "herbicidal effect rating", "setting": "[5]; 0.2500 kg/ha", "result": 8.5}, {"measurement": "herbicidal effect rating", "setting": "[6]; 0.0156-0.0160 kg/ha", "result": 1.0}, {"measurement": "herbicidal effect rating", "setting": "[6]; 0.0313-0.0320 kg/ha", "result": 1.0}, {"measurement": "herbicidal effect rating", "setting": "[6]; 0.0620-0.0630 kg/ha", "result": 6.0}, {"measurement": "herbicidal effect rating", "setting": "[6]; 0.1250 kg/ha", "result": 9.0}, {"measurement": "herbicidal effect rating", "setting": "[6]; 0.2500 kg/ha", "result": 9.0}, {"measurement": "herbicidal effect rating", "setting": "[7]; 0.0156-0.0160 kg/ha", "result": 5.0}, {"measurement": "herbicidal effect rating", "setting": "[7]; 0.0313-0.0320 kg/ha", "result": 6.0}, {"measurement": "herbicidal effect rating", "setting": "[7]; 0.0620-0.0630 kg/ha", "result": 7.5}, {"measurement": "herbicidal effect rating", "setting": "[7]; 0.1250 kg/ha", "result": 9.0}, {"measurement": "herbicidal effect rating", "setting": "[7]; 0.2500 kg/ha", "result": 8.0}, {"measurement": "herbicidal effect rating", "setting": "[8]; 0.0156-0.0160 kg/ha", "result": 0.0}, {"measurement": "herbicidal effect rating", "setting": "[8]; 0.0313-0.0320 kg/ha", "result": 1.0}, {"measurement": "herbicidal effect rating", "setting": "[8]; 0.0620-0.0630 kg/ha", "result": 4.5}, {"measurement": "herbicidal effect rating", "setting": "[8]; 0.1250 kg/ha", "result": 7.0}, {"measurement": "herbicidal effect rating", "setting": "[8]; 0.2500 kg/ha", "result": 9.0}, {"measurement": "herbicidal effect rating", "setting": "[9]; 0.0156-0.0160 kg/ha", "result": 1.5}, {"measurement": "herbicidal effect rating", "setting": "[9]; 0.0313-0.0320 kg/ha", "result": 2.5}, {"measurement": "herbicidal effect rating", "setting": "[9]; 0.0620-0.0630 kg/ha", "result": 9.0}, {"measurement": "herbicidal effect rating", "setting": "[9]; 0.1250 kg/ha", "result": 9.0}, {"measurement": "herbicidal effect rating", "setting": "[9]; 0.2500 kg/ha", "result": 9.0}, {"measurement": "herbicidal effect rating", "setting": "[10]; 0.0156-0.0160 kg/ha", "result": 3.0}, {"measurement": "herbicidal effect rating", "setting": "[10]; 0.0313-0.0320 kg/ha", "result": 7.0}, {"measurement": "herbicidal effect rating", "setting": "[10]; 0.0620-0.0630 kg/ha", "result": 8.0}, {"measurement": "herbicidal effect rating", "setting": "[10]; 0.1250 kg/ha", "result": 9.0}, {"measurement": "herbicidal effect rating", "setting": "[10]; 0.2500 kg/ha", "result": 9.0}, {"measurement": "herbicidal effect rating", "setting": "[11]; 0.0156-0.0160 kg/ha", "result": 1.5}, {"measurement": "herbicidal effect rating", "setting": "[11]; 0.0313-0.0320 kg/ha", "result": 2.5}, {"measurement": "herbicidal effect rating", "setting": "[11]; 0.0620-0.0630 kg/ha", "result": 6.5}, {"measurement": "herbicidal effect rating", "setting": "[11]; 0.1250 kg/ha", "result": 7.0}, {"measurement": "herbicidal effect rating", "setting": "[11]; 0.2500 kg/ha", "result": 7.5}, {"measurement": "herbicidal effect rating", "setting": "[12]; 0.0156-0.0160 kg/ha", "result": 9.0}, {"measurement": "herbicidal effect rating", "setting": "[12]; 0.0313-0.0320 kg/ha", "result": 9.0}, {"measurement": "herbicidal effect rating", "setting": "[12]; 0.0620-0.0630 kg/ha", "result": 9.0}, {"measurement": "herbicidal effect rating", "setting": "[12]; 0.1250 kg/ha", "result": 9.0}, {"measurement": "herbicidal effect rating", "setting": "[12]; 0.2500 kg/ha", "result": 9.0}]}
